Read-outs that look alike come from different tables or passages of the source.

As usually defined, the EC50 is the concentration that produces a half-maximal response.

The subject of data set [1] is Adjuvant-Induced Arthritis (AIA). The data set can be described thus: Adjuvant-Induced Arthritis (AIA) in Lewis rats. The settings on record: 35 days and 45 days treatment sections.
Data set [2] concerns HBV. The experiment in a line: HBV mouse hydrodynamic injection (HDI) model. Format: in vivo, BALB/c mice. The settings on record: therapeutically-treated mice, from day 3 post HDI to the end. From the text: Hydrodynamic injection (HDI) is an in vivo gene delivery technology. It refers to transiently transfect the mouse liver cells with a foreign gene via tail vein injection of a large volume saline containing plasmid within a few seconds. Taking the advantage of the liver-targeting manner of hydrodynamic injection, a single hydrodynamic injection of a replication-competent HBV DNA, could result in HBV replication in mouse liver shortly. This HBV hydrodynamic injection model on immunocompetent mice is a convenient and reproducible animal model for anti-HBV compound screening in vivo, which has been successfully established in WuXi ID department.
• 3.1 Hydrodynamic injection and compound administration • 3.1.1. From day −7 to day 0, all 5 mice in group 4 were administrated i.p./i.v. with test article daily for 8 days according to Table 14.2. • 3.1.2. On day 0, all groups of mice were hydrodynamicly injected via tail vein with pcDNA3.1/HBV plasmid DNA in a volume of normal saline equal to 8% of a mouse body weight. […]
• 3.2.1.1 Isolate DNA from 50 μl plasma using QIAamp 96 DNA Blood Kit. […] Run qPCR for HBV DNA quantification. a) Dilute HBV plasmid standard by 10-fold from 10^7 copies/μl to 10 copies/μl. b) Prepare qPCR mix as shown below. […]
HBV DNA quantity=DNA determined by HBV primer-DNA determined by plasmid primer. […]

In data set [3] the test system is HBV in HepG2.2.15. The experiment in a line: Anti-HBV potency in stable HBV cell line (HBV DNA real time PCR). Format: cell-based. Conditions: Hepatitis B virus. Here is the method:
Lamivudine is diluted with 3-fold for 9 concentrations.
i) Cell culture medium: RPM 1640-4% FBS-1% Pen/Strep-1% Glutamine ii) HepG2.2.15 cell culture: Grow the cells in T75 flask. Incubated at 37° C., 95% humidity, 5% CO2.
f) Refresh protein-containing medium on day 3 of drug treatment. g) Collect culture media from the HepG2.2.15 plates on day 6 followed by HBV DNA extraction using QIAamp 96 DNA Blood Kit (QIAGEN #51161). 2) Real time PCR for HBV DNA quantification. a) Dilute HBV plasmid standard by 10-fold from 0.1 ng/ul to 0.000001 ng/ul. b) Prepare realtime PCR mix as shown blow.
c) Add 15 ul/well PCR mix to 96-well optical reaction plates. d) Add 10 ul of the diluted plasmid standard to C12-H12. […]
3) Data analysis: A standard curve is generated by plotting Ct value vs. the amount of the HBV plasmid standard, and the quantity of each sample is estimated based on the Ct value projection on the standard curve; percent of HBV inhibition by protein or compound is calculated using the following equation: % Inh.=[1−(HBV quantity of sample−HBV quantity of HepG2 control)/(HBV quantity of 0% Inhibition control−HBV quantity of HepG2 control)]*100.
In general terms: Real-time PCR tracks product formation cycle by cycle.

Data set [4] deals with HCV 1a replicon. The data set can be described thus: microbe, parasite or virus in culture. The settings on record: Hepatitis C virus, read-out: EC50 (uM) 1a. Format: cell-based.
Procedure: (§1) The cells are counted using hemocytometer.
(§2) Incubate plate at 5% CO2, 37° C. for 4 hours.
(§3) Dose-response curves are plotted using Prism.
The test system of data set [5] is HCV 1b replicon. The experiment in a line: microbe, parasite or virus in culture. Format: cell-based. Conditions: Hepatitis C virus, read-out: EC50 (uM) 1b.
Procedure: as §1, §2, §3
In data set [6] the test system is HCV 2a replicon. The data set can be described thus: microbe, parasite or virus in culture. Format: cell-based. Conditions: Hepatitis C virus, read-out: EC50 (uM) 2a.
Procedure: as §1, §2, §3
The subject of data set [7] is atherosclerotic model. The settings on record: for Animal Wounded, Total: n = 10, reason: fighting each other; for Animal Dead, Total: n = 10 ApoE ko mice, high fat diet. From the text:
10 ApoE ko mice were fed with regular chow diet and used as negative control group. 50 ApoE ko mice were fed with high fat diet (35% kcal fat, 1% cholesterol) for 8 weeks, and then the plasma samples were collected for lipid profile measurement before the treatment. 50 ApoE ko mice were assigned into 5 groups based on the fasting overnight plasma TC and HDL level.
• 23 Dec. 2011: 60 ApoE mice arrived at chempartner and were housed in the animal facility in the building #3 for the acclimation. • 6 Jan. 2012: Measured the body weight for each mouse. 50 mice were fed with high fat diet and 10 mice were fed with normal chow diet. • 2 Mar. 2012: All mice were fasted over night and plasma samples (about 300 ul whole blood) were collected for lipid profile measurement before treatment with RAAS antibody. • 19 Mar. 2012 to 6 Apr. […] 2012: All mice were fasted over night and plasma sample for each mouse (about 300 ul whole blood) was collected for lipid profile measurement after 16 weeks treatment. Blood glucose was also measured for each mouse. • 9 Jul. 2012: The study was terminated after 16 weeks treatment. Measure BW, sacrificed each mouse, dissected the aorta, heart, liver and kidney and fixed them in 4% PFA.
Antibody products were administrated by intraperitoneal injection every two days (Monday, Wednesday, and Friday). and the positive compound was administered by p.o every day.
The body weight was weighed weekly during the period of treatment.
The fasting overnight blood glucose was measured at the end of study by Roche glucometer.
About 300 ul of blood sample was collected from the orbital vein for each mouse and centrifuged at 7000 rpm for 5 min at 4° C. and the plasma lipid profile was measured by Roche Modular automatic biochemistry analyzer in DaAn Medical Laboratory
After RAAS antibody products treatment for 16 weeks, all mice were sacrificed. Measured body weight and collected blood sample for each mouse. Weighed liver weight and saved a tiny piece of liver into 4% paraformaldehyde (PFA) fixation solution for further analysis. At same time, take the photos with heart, lung, aortas and two kidneys.
1. Sacrificed the mice and dissected the heart, aorta, and arteries under dissecting microscope.
4. Stain with freshly prepared Oil Red O working solution 10 min. • 1). Oil red O stock stain: 0.5% powder in isopropanol • 2). Working solution: dilute with distilled water (3:2) and filter with membrane (0.22 um)
Scanning the glasses slides with the Aperio ScanScope system and analyze with the image proplus software to measure the area of atherosclerotic plaque lession. The results were expressed as the percentage of the total aortic surface area covered by lesions. The operation procedure of software was briefly described as follow: Converted the sys version photos into JPG version, then calibrated it and subsequently selected the red regions and then calculate the total area automatically by image proplus software.
The results were expressed as the Mean±SEM and statistically evaluated by student's t-test.
Area Percent (%)=Sum Area of Atherosclerotic Plaque (Mm^2)/Whole Area of Vascular Inner Wall (Mm^2)

Data set [8] relates to lung cancer cells. The experiment in a line: KH mediums vs lung cancer cells, in-vitro well study. It counts as cell-based. From the text: From which other companies in China have produced Human Albumin for use in the cell growth instead of feta bovine serum and also
The above have been discovered in In-Vitro well study but not tested for CCK8 to measure the degree of inhibition of the cancer cells by each of the mediums. Such a study has been performed on Oct. 4, 2012 it is amazing to find out that all series of medium from KH100, KH200 and KH300 have different level of effect on the inhibition of the lung cancer, leukemia, gastric and breast both solid tumors and blood cancer have been tested.

For `C[C@@H]1C[C@H]2[C@@H]3CCC4=CC(=O)C=C[C@]4(C)[C@@]3(F)[C@@H](O)C[C@]2(C)[C@@]1(O)C(=O)CO` [Dex, Dexamethasone], the “body weight compared with saline group” value in data set [1] is recorded as “reduction of body weight”.

As to `C=C1[C@H](CO)[C@@H](O)C[C@@H]1n1cnc2c(=O)[nH]c(N)nc21` [ETV, Entecavir], the “HBV replication in plasma” value in data set [2] is “significant inhibition”.

In turn, `Nc1ccn([C@@H]2CS[C@H](CO)O2)c(=O)n1` [Lamivudine] showed an EC50 in data set [3] of 0.0062 µM.

As to `NC(=O)c1ncn([C@@H]2O[C@H](CO)[C@@H](O)[C@H]2O)n1` [Ribavirin], the EC50 is 57.6 µM in data set [4], 39 µM in data set [5] and 37.4 µM in data set [6].

Regarding APOA 1, the entries for the “Animal Wounded, Total” value in data set [7] (high dose 0.1 ml i.p.), in data set [7] (low dose) and in data set [7] (mid dose 0.075 ml i.p.) were 1, 3 and 1, respectively. Moreover, the “Animal Dead, Total” value was determined as 1 in data set [7] (high dose 0.1 ml i.p., reason: Fighting); 3 in data set [7] (low dose, reasons: gastrorrhagia, urinary tract infection (2)); 1 in data set [7] (mid dose 0.075 ml i.p., reason: Fighting).

As for “bovine human albumin: animal protein product”, in data set [8], the “effect on lung cancer cells” value is “inhibited lung cancer cell growth”.
